# From PubChem BioAssay (NCI)
#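 All cell lines were grown in 96-well plates and treated with compound for 48 hours. Definition used: TGI = concentration required for complete inhibition of growth.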
# Key:
# Assay in all cases: NCI anticancer screen, dose series, 48 h
# [1] = tested on: UACC-62 melanoma
# [2] = tested on: LOX IMVI melanoma
# [3] = tested on: UACC-257 melanoma
# [4] = tested on: SK-MEL-2 melanoma
# [5] = tested on: NCI-H460 lung
# [6] = tested on: SK-OV-3 ovarian
# [7] = tested on: DMS 273 small cell lung
# [8] = tested on: HOP-92 NSCLC
# [9] = tested on: U251 CNS
# [10] = tested on: SF-295 CNS
# [11] = tested on: 786-0 renal
# [12] = tested on: OVCAR-4 ovarian
# [13] = tested on: SF-539 CNS
# [14] = tested on: HCT-15 colon
# [15] = tested on: HOP-18 NSCLC
# [16] = tested on: A549 NSCLC
# [17] = tested on: A498 renal
# [18] = tested on: SNB-78 CNS
# [19] = tested on: IGROV1 ovarian
# [20] = tested on: HOP-62 NSCLC
# [21] = tested on: HCT-116 colon
# [22] = tested on: SK-MEL-5 melanoma
# [23] = tested on: HT29 colon
# [24] = tested on: ACHN renal
# [25] = tested on: EKVX NSCLC
# [26] = tested on: SN12C renal
# [27] = tested on: SR leukemia
# [28] = tested on: KM12 colon
# [29] = tested on: M14 melanoma
# [30] = tested on: NCI-H23 lung
# [31] = tested on: DLD-1 colon
# [32] = tested on: SW-620 colon
# [33] = tested on: UO-31 renal
# [34] = tested on: COLO 205 colon
# [35] = tested on: MALME-3M melanoma
# [36] = tested on: OVCAR-3 ovarian
# [37] = tested on: HL-60(TB) leukemia
# [38] = tested on: MOLT-4 leukemia
# [39] = tested on: DMS 114 small cell lung
# [40] = tested on: SK-MEL-28 melanoma
# [41] = tested on: HCC-2998 colon
# [42] = tested on: KM20L2 colon
# [43] = tested on: NCI-H522 lung
# [44] = tested on: NCI-H226 lung
# [45] = tested on: CAKI-1 renal
# [46] = tested on: RPMI-8226 leukemia
# [47] = tested on: SF-268 CNS
# [48] = tested on: RXF-631 renal
# [49] = tested on: RXF 393 renal
# [50] = tested on: SNB-75 CNS
# [51] = tested on: LXFL 529 NSCLC
# [52] = tested on: OVCAR-8 ovarian
# [53] = tested on: OVCAR-5 ovarian
# [54] = tested on: K-562 leukemia
# [55] = tested on: CCRF-CEM leukemia
# [56] = tested on: SNB-19 CNS
# [57] = tested on: TK-10 renal
compound,measurement,setting,value
Cc1ccc(N=Nc2c(-c3ccccc3)nn(C(=O)CC(=O)Nc3ccc(Cl)cc3)c2-c2ccccc2)cc1,TGI,[1],> 100 µM
same,TGI,[2],> 100 µM
same,TGI,[3],> 100 µM
same,TGI,[4],> 100 µM
same,TGI,[5],> 100 µM
same,TGI,[6],> 100 µM
same,TGI,[7],> 100 µM
same,TGI,[8],66.9 µM
same,TGI,[9],> 100 µM
same,TGI,[10],> 100 µM
same,TGI,[11],> 100 µM
same,TGI,[12],> 100 µM
same,TGI,[13],> 100 µM
same,TGI,[14],> 100 µM
same,TGI,[15],> 100 µM
same,TGI,[16],> 100 µM
same,TGI,[17],94.9 µM
same,TGI,[18],> 100 µM
same,TGI,[19],> 100 µM
same,TGI,[20],> 100 µM
same,TGI,[21],> 100 µM
same,TGI,[22],> 100 µM
same,TGI,[23],> 100 µM
same,TGI,[24],> 100 µM
same,TGI,[25],18.3 µM
same,TGI,[26],> 100 µM
same,TGI,[27],57.3 µM
same,TGI,[28],> 100 µM
same,TGI,[29],> 100 µM
same,TGI,[30],> 100 µM
same,TGI,[31],> 100 µM
same,TGI,[32],> 100 µM
same,TGI,[33],86.3 µM
same,TGI,[34],> 100 µM
same,TGI,[35],> 100 µM
same,TGI,[36],99.6 µM
same,TGI,[37],> 100 µM
same,TGI,[38],79.1 µM
same,TGI,[39],> 100 µM
same,TGI,[40],> 100 µM
same,TGI,[41],> 100 µM
same,TGI,[42],> 100 µM
same,TGI,[43],> 100 µM
same,TGI,[44],> 100 µM
same,TGI,[45],> 100 µM
same,TGI,[46],86.7 µM
same,TGI,[47],> 100 µM
same,TGI,[48],> 100 µM
same,TGI,[49],99.6 µM
same,TGI,[50],73.5 µM
same,TGI,[51],94.5 µM
same,TGI,[52],> 100 µM
same,TGI,[53],> 100 µM
same,TGI,[54],> 100 µM
same,TGI,[55],72.5 µM
same,TGI,[56],> 100 µM
CC1=C(/C=C/C(C)=C/C=C/C(C)=C/C=C/C=C(C)/C=C/C=C(C)/C=C/C=C(C)/C=C/C=C(\C)C(=O)O)C(C)(C)CCC1,TGI,[1],> 100 µM
same,TGI,[3],> 100 µM
same,TGI,[4],> 100 µM
same,TGI,[5],> 100 µM
same,TGI,[6],> 100 µM
same,TGI,[7],> 100 µM
same,TGI,[9],> 100 µM
same,TGI,[10],> 100 µM
same,TGI,[11],> 100 µM
same,TGI,[12],> 100 µM
same,TGI,[13],> 100 µM
same,TGI,[14],> 100 µM
same,TGI,[15],> 100 µM
same,TGI,[16],> 100 µM
same,TGI,[17],> 100 µM
same,TGI,[18],> 100 µM
same,TGI,[19],> 100 µM
same,TGI,[20],> 100 µM
same,TGI,[21],> 100 µM
same,TGI,[22],> 100 µM
same,TGI,[23],> 100 µM
same,TGI,[24],> 100 µM
same,TGI,[25],> 100 µM
same,TGI,[26],> 100 µM
same,TGI,[28],> 100 µM
same,TGI,[29],> 100 µM
same,TGI,[30],> 100 µM
same,TGI,[31],> 100 µM
same,TGI,[32],> 100 µM
same,TGI,[33],> 100 µM
same,TGI,[34],> 100 µM
same,TGI,[35],> 100 µM
same,TGI,[36],> 100 µM
same,TGI,[38],> 100 µM
same,TGI,[39],> 100 µM
same,TGI,[40],> 100 µM
same,TGI,[57],> 100 µM
same,TGI,[42],> 100 µM
same,TGI,[43],> 100 µM
same,TGI,[44],> 100 µM
same,TGI,[45],> 100 µM
same,TGI,[46],> 100 µM
same,TGI,[47],> 100 µM
same,TGI,[48],> 100 µM
same,TGI,[49],> 100 µM
same,TGI,[50],> 100 µM
same,TGI,[51],> 100 µM
same,TGI,[52],> 100 µM
same,TGI,[53],> 100 µM
same,TGI,[54],> 100 µM
same,TGI,[55],> 100 µM
same,TGI,[56],> 100 µM
